Data: US8834843B2, “Imaging method” (GE Healthcare Limited, priority 2007, dated 2014)
Like-named read-outs stand apart in the source and are kept apart here. Numbered stars: 1 amine (or outer) side, 2 acyl side, 3 side chain; on linkers, the order of the positions; unused ones are H or OH. Bridge positions count the residues as written; N and C are the ends. Side chains are listed from the residue outwards. Peptide text beside a SMILES is read from it. * marks the point of attachment. X1 = C/C(=N\O)C(C)(C)NCCC(CCNC(C)(C)/C(C)=N/O)CCN*; Glutaryl = O=C(CCCC(=O)[*:2])[*:1]; X2 = NC(=O)COCC(=O)NCCOCCOCCOCCN*

Columns and labels:
αv integrin = experiment: Liver uptake vs alpha-v integrin expression (ELISA) in BDL rat liver; type: in vivo; settings: BDL animals
Procedure: The BDL and sham animal models were set up as described in Example 3. At each of 2, 15 and 28 days post-operatively, ˜3 MBq Compound 8 was administered to animals and the liver uptake assessed as described in Example 3.
The expression of αv integrin in the animals' livers was measured in homogenised livers of BDL- and sham-operated animals. At each of 2, 15 and 28 days post-operatively, animals were sacrificed and their livers removed and stored at −70° C.
Pre-weighed livers were removed from −70° C. freezer and placed into pre-cooled mortar and pestle in the presence of low amount of liquid nitrogen. Liver was crushed to almost a homogenous powder (during the crushing of the liver a small amount of liquid nitrogen was added to keep the tissue frozen at all times). […]
The homogenate was transferred into a pre-chilled glass tissue Dounce and three up and down strokes of the pestle were applied at 4° C. […] Relative protein concentration was determined in each sample using a commercial protein assay kit with BSA standards according to the manufacturer's instruction (Pierce, USA) (BSA aliquots should be made in modified RIPA buffer that was used for the homogenisation). Supernatant from each sample was further diluted between 1:50 and 1:200 in H2O and protein concentration was determined using a […] multi-well Plate reader (iEMS). […]

[1] = Biodistribution in sham-operated rats with and without excess cold compound; type: in vivo; settings: male, Sprague Dawley, rat, iv, total radioactivity, 15 days post-op, 1 hour post-injection; for dose excreted at 1 h: bile and urine
Procedure: On the appropriate day post surgery BDL and sham animals were removed and put under isoflurane anaesthesia, then each animal was injected with 0.3 ml intravenously (i.v.) via tail vein (˜3MBq). At the appropriate time point post-injection of the test item, each animal was re-anaesthetised with isoflurane, sacrificed by cervical dislocation weighed and the weight recorded via a barcode scanning system. Each animal was dissected and the following organs and tissues were removed and counted using BASIL counter protocol 40 or manual counting:
The recorded activity in a whole organ (e.g., liver) was corrected for background radioactivity and for radioactive decay and the biodistribution of radioactivity calculated by reference to Formula I:
[formula] where: • A=counts per second measured in organ • B=total counts per second measured in all samples (excluding the injection site)
The percentage of injected radioactivity in the weighed tissue samples (e.g., blood) was calculated to give % i.d. in the entire tissue by reference to Formula 2:
[formula] where: • Zs=counts per second in sample • Ws=weight of sample in grams • Wb=weight of animal in grams immediately after sacrifice • B=total counts per second measured in all the samples (excluding the injection site) • F=tissue specific factor representing the mass of the tissue as a proportion of the total body weight of the animal
The biodistribution of radioactivity was investigated in 15 days post-operatively in BDL and sham-operated male Sprague Dawley rats (procedures described in Example 3) 1 hour following of intravenous injection via tail vein of ˜3 MBq of Compound 8, both before and after addition of 1:100 and 1:10,000 fold excess of cold Compound 8. At the appropriate time point post-injection of the test Item, each animal was re-anaesthetised with isoflurane, sacrificed by cervical dislocation and weighed. Each animal was dissected and organs and tissues (see Tables 5 and 6 below) were removed and counted using BASIL counter protocol 40 or manual counting.

For `C/C(=N\O)C(C)(C)NCCC(CCNC(=O)CCCC(=O)NCCCC[C@@H]1NC(=O)CSC[C@@H](C(=O)NCCOCCOCCOCCNC(=O)COCC(N)=O)NC(=O)[C@H](Cc2ccccc2)NC(=O)[C@@H]2CSSC[C@H](NC1=O)C(=O)N[C@@H](CCCNC(=N)N)C(=O)NCC(=O)N[C@@H](CC(=O)O)C(=O)N2)CCNC(C)(C)/C(C)=N/O` (stereo partly shown) [Compound 8] ({CH2CO}-K([Glutaryl-X1])CRGDCFC-X2; disulfide 2-6; thioether N-8), the “Correlation of αv integrin expression with liver uptake (in words)” value (αv integrin) was “correlation”, the dose excreted at 1 h ([1]; +10K-fold excess cold Compound 8) was 46.5% and the dose excreted at 1 h ([1]; +100-fold excess cold Compound 8) was 43.2%. For the same compound, the dose excreted at 1 h ([1]; no excess) was 44.6%, the tissue uptake dose at 1 h ([1]; blood, +10K-fold excess cold Compound 8, read-out: Activity in Blood, Mean) was 1.4 %ID and the tissue uptake dose at 1 h ([1]; blood, +100-fold excess cold Compound 8, read-out: Activity in Blood, Mean) was 1.37 %ID. It also gave a tissue uptake dose at 1 h ([1]; blood, no excess, read-out: Activity in Blood, Mean) of 1.55 %ID, a tissue uptake dose at 1 h ([1]; bone, 3 MBq, +10K-fold excess cold Compound 8, read-out: Activity in Bone, Mean) of 2.42 %ID and a tissue uptake dose at 1 h ([1]; bone, 3 MBq, +100-fold excess cold Compound 8, read-out: Activity in Bone, Mean) of 3.06 %ID. For the same compound, the tissue uptake dose at 1 h ([1]; bone, 3 MBq, no excess, read-out: Activity in Bone, Mean) was 3.1 %ID, the tissue uptake dose at 1 h ([1]; carcass, 3 MBq, +10K-fold excess cold Compound 8, read-out: Activity in Carcass, Mean) was 11.6 %ID and the tissue uptake dose at 1 h ([1]; carcass, 3 MBq, +100-fold excess cold Compound 8, read-out: Activity in Carcass, Mean) was 9.32 %ID. The tissue uptake dose at 1 h ([1]; carcass, 3 MBq, no excess, read-out: Activity in Carcass, Mean) was 8.45 %ID, the tissue uptake dose at 1 h ([1]; heart, 3 MBq, +10K-fold excess cold Compound 8, read-out: Activity in Heart, Mean) was 0.1 %ID and the tissue uptake dose at 1 h ([1]; heart, 3 MBq, +100-fold excess cold Compound 8, read-out: Activity in Heart, Mean) was 0.1 %ID. For the same compound, the tissue uptake dose at 1 h ([1]; heart, 3 MBq, no excess, read-out: Activity in Heart, Mean) was 0.12 %ID, the tissue uptake dose at 1 h ([1]; injection site, 3 MBq, +10K-fold excess cold Compound 8, read-out: Activity in Injection Site, Mean) was 1.71 %ID and the tissue uptake dose at 1 h ([1]; injection site, 3 MBq, +100-fold excess cold Compound 8, read-out: Activity in Injection Site, Mean) was 1.44 %ID. It also gave a tissue uptake dose at 1 h ([1]; injection site, 3 MBq, no excess, read-out: Activity in Injection Site, Mean) of 1.66 %ID, a tissue uptake dose at 1 h ([1]; kidneys, +10K-fold excess cold Compound 8, read-out: Activity in Kidneys, Mean) of 3.65 %ID and a tissue uptake dose at 1 h ([1]; kidneys, +100-fold excess cold Compound 8, read-out: Activity in Kidneys, Mean) of 4.13 %ID. The tissue uptake dose at 1 h ([1]; kidneys, no excess, read-out: Activity in Kidneys, Mean) was 4.07 %ID, the tissue uptake dose at 1 h ([1]; liver, 3 MBq, +10K-fold excess cold Compound 8, read-out: Activity in Liver, Mean) was 3.03 %ID and the tissue uptake dose at 1 h ([1]; liver, 3 MBq, +100-fold excess cold Compound 8, read-out: Activity in Liver, Mean) was 3.52 %ID. It also gave a tissue uptake dose at 1 h ([1]; liver, 3 MBq, no excess, read-out: Activity in Liver, Mean) of 3.71 %ID, a tissue uptake dose at 1 h ([1]; lung, 3 MBq, +10K-fold excess cold Compound 8, read-out: Activity in Lung, Mean) of 0.39 %ID and a tissue uptake dose at 1 h ([1]; lung, 3 MBq, +100-fold excess cold Compound 8, read-out: Activity in Lung, Mean) of 0.38 %ID. The tissue uptake dose at 1 h ([1]; lung, 3 MBq, no excess, read-out: Activity in Lung, Mean) was 0.46 %ID, the tissue uptake dose at 1 h ([1]; muscle, 3 MBq, +100-fold excess cold Compound 8, read-out: Activity in Muscle, Mean) was 10.9 %ID and the tissue uptake dose at 1 h ([1]; muscle, 3 MBq, no excess, read-out: Activity in Muscle, Mean) was 10.4 %ID. For the same compound, the tissue uptake dose at 1 h ([1]; muscle, +10K-fold excess cold Compound 8, read-out: Activity in Muscle, Mean) was 8.41 %ID, the tissue uptake dose at 1 h ([1]; skin, 3 MBq, +10K-fold excess cold Compound 8, read-out: Activity in Skin, Mean) was 12.7 %ID and the tissue uptake dose at 1 h ([1]; skin, 3 MBq, +100-fold excess cold Compound 8, read-out: Activity in Skin, Mean) was 14 %ID. The tissue uptake dose at 1 h ([1]; skin, 3 MBq, no excess, read-out: Activity in Skin, Mean) was 14.4 %ID, the tissue uptake dose at 1 h ([1]; small and large intestine, 3 MBq, +10K-fold excess cold Compound 8, read-out: Activity in Small & Large Intestine, Mean) was 7.54 %ID and the tissue uptake dose at 1 h ([1]; small and large intestine, 3 MBq, +100-fold excess cold Compound 8, read-out: Activity in Small & Large Intestine, Mean) was 8.42 %ID. The tissue uptake dose at 1 h ([1]; small and large intestine, 3 MBq, no excess, read-out: Activity in Small & Large Intestine, Mean) was 7.86 %ID, the tissue uptake dose at 1 h ([1]; spleen, 3 MBq, +10K-fold excess cold Compound 8, read-out: Activity in Spleen, Mean) was 0.27 %ID and the tissue uptake dose at 1 h ([1]; spleen, 3 MBq, +100-fold excess cold Compound 8, read-out: Activity in Spleen, Mean) was 0.29 %ID. The tissue uptake dose at 1 h ([1]; spleen, 3 MBq, no excess, read-out: Activity in Spleen, Mean) was 0.29 %ID, the tissue uptake dose at 1 h ([1]; stomach, 3 MBq, +10K-fold excess cold Compound 8, read-out: Activity in Stomach, Mean) was 1.92 %ID and the tissue uptake dose at 1 h ([1]; stomach, 3 MBq, +100-fold excess cold Compound 8, read-out: Activity in Stomach, Mean) was 1.21 %ID. For the same compound, the tissue uptake dose at 1 h ([1]; stomach, 3 MBq, no excess, read-out: Activity in Stomach, Mean) was 0.9 %ID, the tissue uptake dose at 1 h ([1]; thyroid, 3 MBq, +10K-fold excess cold Compound 8, read-out: Activity in Thyroid, Mean) was 0.04 %ID and the tissue uptake dose at 1 h ([1]; thyroid, 3 MBq, +100-fold excess cold Compound 8, read-out: Activity in Thyroid, Mean) was 0.05 %ID. For the same compound, the tissue uptake dose at 1 h ([1]; thyroid, 3 MBq, no excess, read-out: Activity in Thyroid, Mean) was 0.05 %ID.
